Source: patent US7083511B1, “Methods” (The University of Dundee, priority 1998, dated 2006)
Starred links: 1 amine or outer side, 2 acyl side, 3 side chain; linkers in the order of their positions; H or OH if unused. Positions of bridges follow the written chain, without caps; N, C: chain ends. Non-standard residues stand in square brackets, D forms with d. Residues, ends and D or L forms follow the SMILES beside them. Adda = CO[C@@H](Cc1ccccc1)[C@@H](C)/C=C(C)/C=C/[C@H](N[*:1])[C@H](C)C(=O)[*:2]; dAsp(3S-Me) = C[C@H](C(=O)[*:3])[C@@H](N[*:1])C(=O)[*:2]; d(γGlu) = O=C(O)[C@@H](CCC(=O)[*:2])N[*:1]; NMeDha = C=C(NC)C(=O)O

Tests used:
SGK1 = assay: Activation of GST-SGK1 in transfected 293 cells (Example 5); assay type: cell-based, human
Protocol: (§1) Cells were transiently transfected with DNA constructs expressing (A) GST-SGK1, (B), GST-SGK2α and (C) GST-SGK3. At 24 h after transfection, the cells were deprived of serum for 16 h, then exposed to 50 ng/ml IGF-1 (10 min), 400 ng/ml phorbol myristate acetate (PMA) (30 min), 10% serum (30 min), 1 μM dexamethasone (Dex, 60 min), 2 mM H2O2 (25 min), 5 μg/ml anisomycin (AN, 30 min), 0.4 M sorbitol (30 min), hypotonic stress (1 ml of water added to 3 ml of DMEM, 30 min), UV radiation (30 min after exposure to 200 J/m2) or left untreated (control). After each treatment, the cells were lysed in ice-cold lysis buffer and SGK activity in 100 μg of cell lysate protein was measured.
(§2) FIG. 20. […] Cells were transiently transfected with DNA constructs expressing (A) GST-SGK1, (B) GST-SGK2α and (C) GST-SGK3. At 24 h after transfection, the cells were deprived of serum for 16 h. The transfectants were then pretreated for 10 min with 100 nM wortmannin or for 1 h with 100 μM LY294002 and then stimulated for 25 min with 2 mM H2O2.
(§3) Expression of SGK isoforms in 293 cells. […] After each treatment, the cells were lysed and the activity of SGK isoforms was measured after affinity purification of the GST-fusion proteins on glutathione Sepharose, as described previously for SGK1 [18].

SGK3 [1] = assay: Activation of GST-SGK3 in transfected 293 cells (Example 5); assay type: cell-based, human
Protocol: as §1, §2, §3

SGK2α = assay: Activation of GST-SGK2α in transfected 293 cells (Example 5); assay type: cell-based, human
Protocol: as §1, §2, §3

SGK [2] = assay: Activation of GST-SGK in transfected 293 cells (Example 1); assay type: cell-based, human; settings: PMA 400 ng/ml 30 min, EGF 100 ng/ml 30 min
[3] = system: protein phosphatase 2A (PP2A); assay type: biochemical
SGK3 [4] = target: T1, SGK3 (Homo sapiens, UniProt Q96BR1); assay: Activation of SGK3 by PDK1 in vitro; assay type: biochemical; settings: 10 μM in PS/PC lipid vesicles
T1 construct: made in house; host or cells: 293 cells
T1 sequence (Q96BR1 68-496 limits assumed): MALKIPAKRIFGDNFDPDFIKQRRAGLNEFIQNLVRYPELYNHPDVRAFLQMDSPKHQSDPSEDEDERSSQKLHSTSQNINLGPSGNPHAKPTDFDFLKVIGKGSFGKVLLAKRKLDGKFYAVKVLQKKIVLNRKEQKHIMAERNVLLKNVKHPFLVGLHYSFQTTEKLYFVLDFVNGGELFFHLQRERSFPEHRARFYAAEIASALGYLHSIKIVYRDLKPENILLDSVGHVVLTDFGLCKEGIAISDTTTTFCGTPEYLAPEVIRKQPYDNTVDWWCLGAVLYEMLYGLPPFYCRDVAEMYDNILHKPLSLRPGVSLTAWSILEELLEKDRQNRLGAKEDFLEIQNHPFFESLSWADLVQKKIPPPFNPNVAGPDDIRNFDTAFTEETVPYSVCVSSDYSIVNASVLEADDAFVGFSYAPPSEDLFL
Protocol: (§4) Each GST-SGK isoform (0.4 μg) was incubated for 20 min at 30° C. with protein phosphatase 2A (PP2A, 30 mU/ml) in a 10 μl incubation containing 20 mM Tris/HCl, pH 7.5, 0.1% (v/v) 2-mercaptoethanol, 0.1 mM EGTA and 1 mg/ml bovine serum albumin. After addition of microcystin-LR to 1 μM to inactivate PP2A, SGK (0.4 μg) was phosphorylated for 30 min at 30° C. in a mixture (20 μl) containing 50 mM Tris/HCl, pH 7.5, 10 mM MgCl2, 0.1% (v/v) 2-mercaptoethanol, 0.1 mM EGTA, GST-PDK1 (0.03–300 ng) diluted in Buffer C and 100 μM unlabelled ATP. SGK assays were initiated by the addition of 30 μl of a mixture containing 50 mM Tris/HCl, pH 7.5, 10 mM MgCl2, 0.1% (v/v) 2-mercaptoethanol, 0.1 mM EGTA, 100 μM [γ-^32P] ATP (500 c.p.m/pmol), 50 μM of the peptide substrate Crosstide ([…]) (SEQ. ID. NO:30) and 4.2 μM of residues 5–24 of the specific protein inhibitor of adenosine 3′5′ cyclic monophosphate-dependent protein kinase. After 10 min at 30° C., the reactions were terminated by spotting aliquots on to P81 phosphocellulose paper, followed by immediate immersion in 75 mM phosphoric acid. The papers were washed, dried and analysed. One unit (U) of SGK was that amount which phosphorylated 1 nmole of Crosstide in one min.

SGK2 = target: T2, SGK2 (Homo sapiens, UniProt Q9HBY8); assay: Activation of SGK2 by PDK1 in vitro; assay type: biochemical; settings: 10 μM in PS/PC lipid vesicles
T2 construct: pEBG-SGK2α expressing full length of SGK2α; made in house; host or cells: 293 cells
T2 sequence (Q9HBY8 1-367): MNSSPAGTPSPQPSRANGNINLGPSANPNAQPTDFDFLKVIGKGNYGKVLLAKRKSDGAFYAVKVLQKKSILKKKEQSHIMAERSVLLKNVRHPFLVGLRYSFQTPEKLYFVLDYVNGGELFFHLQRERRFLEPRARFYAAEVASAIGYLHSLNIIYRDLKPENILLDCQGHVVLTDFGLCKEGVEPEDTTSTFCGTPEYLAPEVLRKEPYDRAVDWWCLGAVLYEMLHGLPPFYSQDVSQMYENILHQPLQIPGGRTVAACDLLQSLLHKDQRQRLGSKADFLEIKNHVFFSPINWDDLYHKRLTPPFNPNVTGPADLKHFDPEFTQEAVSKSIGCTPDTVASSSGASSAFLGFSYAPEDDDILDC
Protocol: as §4

SGK [5] = target: T3, SGK (Homo sapiens, UniProt O00141); assay: Phosphorylation and activation of SGK by PDK1 in vitro; assay type: biochemical; settings: 1 μM PtdIns(3,4,5)P3, with or without PS/PC lipid vesicles
T3 construct: PEBG-SGK expressing full length SGK; made in house; host or cells: 293 cells
Protocol: (A) GST-SGK (0.3 μg) was phosphorylated using GST-PDK1 (0.1 μg) and [γ-^32P] ATP (500 cpm/pmol) as described under Methods. Where indicated (+), 1 μM PtdIns(3,4,5)P3 in lipid vesicles containing phosphatidylserine (100 μM) and phosphatidylcholine (100 μM) (PS/PC) were also included. The reactions were stopped by the addition of SDS to 2% and, after heating for 5 min at 95° C., the samples were subjected to electrophoresis on 10% SDS/polyacrylamide gels, stained with Coomasssie blue and then autoradiographed. The positions of the molecular mass markers are also indicated (B) Same as (A), except that unlabelled ATP was used instead of [γ-^32P] ATP. After incubation for 10 min at 30° C., 10 μl aliquots were assayed for SGK activity using Crosstide as substrate. The results are shown ±SD for three separate experiments.
Phosphorylation and assay of SGK. Phosphorylation was carried out at 30° C. in 50 μl incubations containing 50 mM Tris/HCl pH 7.5, 0.1 mM EGTA, 0.1% (v/v) 2-mercaptoethanol, 2.5 μM PKI, 1 μM microcystin-LR, 10 mM magnesium chloride and 100 μM ATP. Where indicated lipid vesicles containing phosphatidylcholine (100 μM), phosphatidyl serine (100 μM) and PtdIns(3,4,5)P3 (1 μM) were also included. SGK activity was assayed exactly as described for PKB [6] using the peptide […] (SEQ. ID. NO:30) (“Crosstide”) at 30 μM as substrate. […]

[6] = IGF-1 50 ng/ml 10 min, H2O2 2 mM 25 min
[7] = 10% serum 30 min, 0.4 M sorbitol 30 min

T3 sequence (O00141 whole entry, looked up): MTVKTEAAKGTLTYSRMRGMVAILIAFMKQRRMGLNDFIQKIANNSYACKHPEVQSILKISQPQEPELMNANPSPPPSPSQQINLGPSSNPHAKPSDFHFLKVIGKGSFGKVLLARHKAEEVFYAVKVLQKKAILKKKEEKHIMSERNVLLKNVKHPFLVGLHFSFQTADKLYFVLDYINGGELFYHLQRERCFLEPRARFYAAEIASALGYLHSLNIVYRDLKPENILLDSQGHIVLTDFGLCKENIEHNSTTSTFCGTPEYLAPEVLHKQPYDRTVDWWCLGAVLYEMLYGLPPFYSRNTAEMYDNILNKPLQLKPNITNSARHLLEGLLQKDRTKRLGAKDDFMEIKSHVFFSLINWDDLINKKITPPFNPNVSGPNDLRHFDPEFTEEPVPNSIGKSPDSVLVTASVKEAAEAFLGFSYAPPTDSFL

OO [hydrogen peroxide]
Activation of SGK1 by the stimulus (SGK1; [6]): five fold | Activation of SGK3 by the stimulus (SGK3 [1]; [6]): 5 fold | Activation of SGK2α by the stimulus (SGK2α; [6]): 5 fold

OC[C@@H](O)[C@@H](O)[C@H](O)[C@@H](O)CO [sorbitol]
Effect of the stimulus on SGK1 activity (in words) (SGK1; [7]): potently inhibited | Effect of the stimulus on SGK3 activity (in words) (SGK3 [1]; [7]): had no effect | Effect of the stimulus on SGK2α activity (in words) (SGK2α; [7]): had no effect

EGF: activator of the classical MAP kinase cascade in 293 cells
Activation of SGK by the stimulus (in words) (SGK [2]): did not induce any activation

CCCCCCCCCCCCCC(=O)O[C@@H]1[C@@H](C)[C@@]2(O)[C@@H](C=C(CO)C[C@]3(O)C(=O)C(C)=C[C@@H]23)[C@@H]2C(C)(C)[C@]12OC(C)=O [Phorbol myristate acetate, reference compound]
Activation of SGK by the stimulus (in words) (SGK [2]): did not induce any activation

C=C1C(=O)N[C@H](C)C(=O)N[C@@H](CC(C)C)C(=O)N[C@@H](C(=O)O)[C@H](C)C(=O)N[C@@H](CCCNC(=N)N)C(=O)N[C@@H](/C=C/C(C)=C/[C@H](C)[C@H](Cc2ccccc2)OC)[C@H](C)C(=O)N[C@@H](C(=O)O)CCC(=O)N1C [microcystin, microcystin-LR] (R[Adda][d(γGlu)][NMeDha][dA]L[dAsp(3S-Me)]-OH; lactam N-7)
Effect on inactivation of GST-SGK by PP2A [3]: prevented

PtdIns(3,4,5)P3
Effect on activation of SGK3 by PDK1 (SGK3 [4]): slightly inhibited | Effect on activation of SGK2 by PDK1 (SGK2): slightly inhibited | Effect on phosphorylation and activation of SGK by PDK1 (SGK [5]): unaffected
